What all share (assay type): cell-based
The target in assay [1] is T1, Human Aryl Hydrocarbon Receptor (AHR) (Homo sapiens, UniProt P35869).
T1 construct: purchased INDIGO Bioscience IB06001-32; host or cells: AHR Reporter Cell (proprietary kit cells)
T1 sequence (P35869 11-848): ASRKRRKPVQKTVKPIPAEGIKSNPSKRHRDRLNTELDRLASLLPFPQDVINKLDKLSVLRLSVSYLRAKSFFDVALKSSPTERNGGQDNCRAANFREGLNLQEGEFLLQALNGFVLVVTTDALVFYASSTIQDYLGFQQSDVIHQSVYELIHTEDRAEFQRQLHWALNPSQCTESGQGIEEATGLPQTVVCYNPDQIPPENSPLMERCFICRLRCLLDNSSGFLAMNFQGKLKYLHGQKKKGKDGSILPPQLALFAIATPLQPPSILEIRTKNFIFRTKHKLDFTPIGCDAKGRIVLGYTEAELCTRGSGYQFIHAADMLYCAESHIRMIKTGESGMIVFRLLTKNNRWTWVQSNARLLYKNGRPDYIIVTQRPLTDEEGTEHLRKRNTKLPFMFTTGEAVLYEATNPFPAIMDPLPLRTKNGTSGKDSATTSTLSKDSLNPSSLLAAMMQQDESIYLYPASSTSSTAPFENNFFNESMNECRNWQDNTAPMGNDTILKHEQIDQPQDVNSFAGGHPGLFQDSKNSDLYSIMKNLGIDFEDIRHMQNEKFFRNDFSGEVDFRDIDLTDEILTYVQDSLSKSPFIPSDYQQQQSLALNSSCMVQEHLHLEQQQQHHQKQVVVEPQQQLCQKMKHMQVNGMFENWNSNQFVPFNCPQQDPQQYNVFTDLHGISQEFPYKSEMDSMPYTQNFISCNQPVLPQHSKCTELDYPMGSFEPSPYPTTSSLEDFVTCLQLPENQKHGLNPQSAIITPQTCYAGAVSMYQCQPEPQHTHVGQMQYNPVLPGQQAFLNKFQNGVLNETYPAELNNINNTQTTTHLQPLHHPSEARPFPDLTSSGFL
Description: AHR agonist reporter assay in human cell line (INDIGO luciferase reporter).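 As to all read-outs here: firefly luciferase luminescence read on a plate reader, values normalized against positive and negative controls.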 The settings on record: reporter cells; for EC50: 24 hours incubation. For orientation: A reporter such as luciferase makes a cellular process visible.
Description: The AHR reporter assay was performed following the protocol of the Human Aryl Hydrocarbon Receptor (AHR) Reporter Assay System (INDIGO Bioscience, #IB06001-32). AHR Reporter Cell was thawed and pre-incubated in Cell Recovery Medium (CRM) for 6 hours. […] Following 24 hours incubation, the media was removed and Luciferase Detection Reagent (LDR) added. The firefly luciferase activity was quantified using a plate reader. Results were normalized by positive and negative controls.

For assay [2], the system named is Human Nuclear Factor (erythroid-derived2)-like 2 (Nrf2). The assay can be described thus: Nrf2 transcription factor activity reporter assay in human cell line (INDIGO luciferase reporter). Particulars: reporter cells, 24 hours incubation, second line of cell; read-out: Nrf2 EC50, second line of cell (head does not name it). The protocol: The Nrf2 reporter assay was performed following the protocol of the Human Nuclear Factor (erythroid-derived2)-like 2 (Nrf2) Reporter Assay System (INDIGO Bioscience, #IB10001). Nrf2 Reporter Cell was thawed and pre-incubated in Cell Recovery Medium (CRM) for 6 hours. The media was then removed and the cells were incubated with Compound Screening Medium (CSM) in the absence (negative control) or presence of increasing concentrations of test compounds (typical dilution: 128 pM, 640 pM, 3.2 nM, 16 nM, 80 nM, 400 nM, […] in duplicates) for 24 hours. For positive control, cells activated with CDDO or Nrf2 agonists described in literature. Following 24 hours incubation, the media was removed and Luciferase Detection Reagent (LDR) added. The firefly luciferase activity was quantified using a plate reader. Results were normalized by positive and negative controls.

Assay [3] deals with IL-6 gene expression in human primary M1 macrophage cells. Description: AHR-regulated IL-6 inhibition in human primary M1 macrophage (qPCR). Particulars: LPS/IFN-gamma/GM-CSF, 24 hours; for IC50: read-out: M1 assay IL6 -IC50. How it is done: Human M1 macrophage was differentiated from PBMC. Briefly, at day 1, monocytes were isolated from human PBMC using EasySe Human Monocyte Enrichment Kit without CD16 Depletion (Stemcell, 19058). The isolated monocytes were seeded at 3×10^7 cells in 15 cm dish using 30 ml medium containing 50 ng/ml GM-CSF (R&D, 215-GM-050/CF). At day 5, 30 ml fresh medium containing 50 ng/ml GM-CSF was added. At day 8, 1.5×10^5 cells/well were re-seeded into 24 wells plate, and 500 ul medium containing 10 ng/ml LPS (Sigma, L7770), 20 ng/ml IFN-gamma (PeproTech, 300-02), 50 ng/ml GM-CSF and the test compounds was added. […] The IL-6 expression was inhibited with AHR agonists described in literature as the positive inhibition control, alternatively the un-stimulated cells were used as the negative inhibition control. […] The primers for human GAPDH (F: […]; R: […]) and human IL-6 (F: […]; R: […]) were used to analyze fold expression of IL-6 of GAPDH by quantitative PCR.

[4] abbreviates: second line of cell, read-out: AHR abEC50.

Read-outs that look alike come from different tables or passages of the source. Bounds are passed on as bounds.

This is an account of results in patent US20250136556A1, “NOVEL MODULATORS OF THE ARYL HYDROCARBON RECEPTOR AND METHODS OF USE THEREOF” (Allianthera (Suzhou) Biopharmaceutical Co., Ltd., priority 2021, published 2025).

For the compound `CC(C)Oc1cc(/C=C/c2ccccc2)cc(O)n1` [Compound 106, (E)-6-isopropoxy-4-styrylpyridin-2-ol], the EC50 is 343 nM in assay [1] (setting [4]) and > 400 nM in assay [2].
In the case of `Cc1ccnc2cc(-c3cc(O)c(C(C)C)c(F)c3)ccc12` [Compound 147], in assay [3], the “M1 assay IL6 -max % inhibition (% to no treatment)” value is 91.60% and the IC50 (commonly the concentration that inhibits the measured activity by half) came to 0.03 nM.
On to `CC(C)c1ncc(-c2cnc3ccccc3c2)cc1O` [Compound 99], for which the results for the EC50 in assay [1] (setting [4]) and in assay [2] were > 100 nM and 100 nM, respectively.
With `CC(C)c1ncc(/C=C/c2cccc(F)c2)cc1O` [Compound 113, (E)-5-(3-fluorostyryl)-2-isopropylpyridin-3-ol], the EC50 in assay [1] (setting [4]) is 298 nM. Also, in assay [3], the “M1 assay IL6 -max % inhibition (% to no treatment)” value came to 67.80% and the IC50 was determined as 120 nM.
Regarding `COc1cc(/C=C/c2ccccc2)cc(OC)c1C(C)=O` [Compound 107, 1-{2,6-dimethoxy-4-[(E)-2-phenylethenyl]phenyl} ethenone], the EC50 in assay [1] (setting [4]) and in assay [2] was > 100 nM each time.
With `C=C(C)c1c(OC)cc(/C=C/c2ccccc2)cc1OC` [Compound 110, 1,3-dimethoxy-5-[(E)-2-phenylethenyl]-2-(prop-1-en-2-yl)benzene], the EC50 in assay [1] (setting [4]) and in assay [2] was > 100 nM in each case.
For `CC(C)c1c(O)cc(-c2cc(F)c3ncccc3c2)cc1F` [Compound 145], in assay [3], the “M1 assay IL6 -max % inhibition (% to no treatment)” value turned out to be 94.10% and the IC50 was 1.9 nM.
For the compound `CC(C)c1ncc(/C=C/c2ccc(F)cc2)cc1O` [Compound 114, 5-[(E)-2-(4-fluorophenyl)ethenyl]-2-isopropylpyridin-3-ol], the EC50 in assay [1] (first line of cell, read-out: AHR reEC50) amounted to 143 nM; in assay [1] (setting [4]) it was 120 nM; in assay [2] it was 19 nM. The “AHR % activation to Tapinarof at 1 μM” value in assay [1] (24 hours, value in brackets) was 88.5%.
Consider `CC(C)c1c(O)cc(-c2ccc3cnccc3c2F)cc1F` [Compound 139], for which, in assay [3], the “M1 assay IL6 -max % inhibition (% to no treatment)” value is listed as 85.80% and the IC50 came out at 5 nM.
As for `COc1cc(/C=C/c2ccccc2)cc(O)c1C(C)(C)O` [Compound 111], the EC50 in assay [1] (setting [4]) was 39 nM; in assay [2], 57 nM.
Consider `CC(C)c1c(O)cc(-c2ccc3cc(F)ccc3n2)cc1F` [Compound 143], for which, in assay [3], the “M1 assay IL6 -max % inhibition (% to no treatment)” value is given as 91.80% and the IC50 is 2.7 nM.
For the compound `CCCc1c(O)cc(/C=C/c2ccccc2)cc1F` [Compound 125, 3-fluoro-5-[(E)-2-phenylethenyl]-2-propylphenol], the EC50 in assay [1] (setting [4]) was 11.5 nM. In assay [3], the “M1 assay IL6 -max % inhibition (% to no treatment)” value is given as 91.70% and the IC50 was found to be 1.35 nM.
With `CC(C)c1c(O)cc(-c2ccc3ccccc3n2)cc1O` [Compound 47], the EC50 stood at 4.21 nM in assay [1] (setting [4]) and 530 nM in assay [2].
Regarding `CC(C)c1c(O)cc(-c2nc3ccccc3[nH]2)cc1O` [Compound 50], the results for the EC50 in assay [1] (setting [4]) and in assay [2] were 17.4 nM and 20 nM, respectively.
On to `CC(C)c1c(O)cc(-c2ccc3ncccc3c2F)cc1F` [Compound 140], for which, in assay [3], the “M1 assay IL6 -max % inhibition (% to no treatment)” value came out at 92.30% and the IC50 is 0.13 nM.
Take `CC(C)c1ncc(-c2nc3ccccc3o2)cc1N` [Compound 121, 5-(1,3-benzoxazol-2-yl)-2-isopropylpyridin-3-amine]: the EC50 in assay [1] (setting [4]) is > 100 nM; in assay [2], 120 nM.
`CC(C)c1ncc(-c2cnc3ccccc3c2)cc1N` [Compound 120, 2-isopropyl-5-(quinolin-3-yl) pyridin-3-amine]: in assay [1] (setting [4]), the EC50 was > 100 nM.
With `Cc1cnc2ccc(-c3cc(O)c(C(C)C)c(O)c3)cc2c1` [Compound 26], in assay [1] (setting [4]), the EC50 was > 100 nM.
Same read-out and setting: in the case of `CC(C)c1ncc(-c2nc3ccccc3[nH]2)cc1O` [Compound 101] it was 94.4 nM; in that of `CC(C)c1c(O)cc(-c2cnc3ccc(F)cc3c2)cc1O` [Compound 11], > 100 nM.
Consider `CC(C)c1c(O)cc(-c2cc(F)c3cnc(N)nc3c2)cc1O` [Compound 39], for which the EC50 in assay [1] (setting [4]) is 3.58 nM. Further, in assay [3], the “M1 assay IL6 -max % inhibition (% to no treatment)” value was 89.60% and the IC50 came to 0.2 nM.
In the case of `CCCc1c(O)cc(-c2ccc3c(C)ccnc3c2)cc1F` [Compound 161], in assay [3], the “M1 assay IL6 -max % inhibition (% to no treatment)” value was found to be 91.30% and the half-maximal inhibitory concentration (IC50) was 1.19 nM.
As for `CC(C)c1ncc(-c2nc3ccccc3[nH]2)cc1N` [Compound 134], the EC50 in assay [1] (setting [4]) was determined as 101 nM.
In the case of `CC(C)c1ncc(-c2cnc3c(F)cc(N)cc3c2)cc1O` [Compound 53], in assay [1] (setting [4]), the EC50 was > 100 nM.
As for `Cc1ccnc2c(-c3cnc(C(C)C)c(O)c3)ccnc12` [Compound 94], the EC50 in assay [1] (setting [4]) is > 100 nM.
With `CC(C)c1c(O)cc(-c2cc(F)c3cnc(N)nc3c2)cc1F` [Compound 149], in assay [3], the “M1 assay IL6 -max % inhibition (% to no treatment)” value was found to be 91.10% and the IC50 is 0.5 nM.
As to `CC(C)c1c(O)cc(-c2cc(N)c3ccccc3n2)cc1O` [Compound 24], the EC50 in assay [1] (setting [4]) was > 100 nM.
For `Cc1ccnc2cc(-c3cc(O)c(C(C)C)c(O)c3)ccc12` [Compound 22], the EC50 in assay [1] (setting [4]) came out at 2.12 nM. Moreover, in assay [3], the “M1 assay IL6 -max % inhibition (% to no treatment)” value was found to be 77.20% and the IC50 was determined as 0.05 nM.
Take `CC(C)c1ncc(-c2c(Cl)cc3c(O)ncnc3c2F)cc1O` [Compound 89]: in assay [1] (setting [4]), the EC50 was > 100 nM.
For `CC(C)c1c(O)cc(-c2cccc3ncccc23)cc1O` [Compound 20], in assay [1] (setting [4]), the EC50 is > 100 nM.
For `CC(C)c1ncc(-c2cncc3ccc(F)cc23)cc1O` [Compound 83], in assay [1] (setting [4]), the EC50 is > 100 nM.
With `CC(C)c1c(O)cc(Oc2ccccc2)cc1O` [Compound 132, 2-isopropyl-5-phenoxybenzene-1,3-diol], the EC50 in assay [1] (setting [4]) was > 400 nM.
With `CC(C)c1c(O)cc(-c2cc3ccccc3nc2C#N)cc1O` [Compound 28], in assay [1] (setting [4]), the EC50 is > 100 nM.
For the compound `CC(C)c1ncc(-c2cccc3ccc(C(=O)O)nc23)cc1O` [Compound 76], the EC50 in assay [1] (setting [4]) is > 100 nM.
As for `CCCc1c(O)cc(-c2cnc3c(F)c(F)ccc3c2)cc1F` [Compound 155], in assay [3], the “M1 assay IL6 -max % inhibition (% to no treatment)” value is given as 89.10% and the IC50 amounted to 3.5 nM.
With `CC(C)c1c(O)cc(-c2cnc3cccc(O)c3c2)cc1O` [Compound 23], the EC50 in assay [1] (setting [4]) is > 100 nM.
For the compound `COc1cc(Oc2ccccc2)cc(O)c1C(C)C` [Compound 133, 2-isopropyl-3-methoxy-5-phenoxyphenol], the values for the EC50 in assay [1] (setting [4]) and in assay [2] were 233 nM and > 400 nM, respectively.
As for `CC(C)c1ncc(/C=C/c2ccccc2)cc1N` [Compound 117, 2-isopropyl-5-[(E)-2-phenylethenyl]pyridin-3-amine], the EC50 in assay [1] (setting [4]) is > 100 nM.
Regarding `CC(C)c1ncc(-c2ccnc3ccc(F)cc23)cc1O` [Compound 55], the EC50 in assay [1] (setting [4]) was > 100 nM.
For `CC(C)c1c(O)cc(-c2ccc3ncnc(N)c3c2)cc1O` [Compound 42], in assay [1] (setting [4]), the EC50 was > 100 nM.
With `CC(C)c1c(O)cc(-c2cnc3c(F)c(F)ccc3c2)cc1O` [Compound 45], the EC50 in assay [1] (setting [4]) is 38.9 nM.
For the compound `CC(C)c1c(O)cc(/C=C/c2ccccc2)cc1F` [Compound 135], the EC50 in assay [1] (setting [4]) came to 38.6 nM. In assay [3], the “M1 assay IL6 -max % inhibition (% to no treatment)” value came to 95.30% and the IC50 came out at 1.7 nM.
